What was measured:
Assay in all cases: relative viability (nuclei count vs DMSO), 5 days (fraction); higher = more cells survive
Zosuquidar + Vorinostat = compound: O[C@@H](COc1cccc2ncccc12)CN1CCN([C@@H]2c3ccccc3[C@@H]3[C@H](c4ccccc42)C3(F)F)CC1 [Zosuquidar] + O=C(CCCCCCC(=O)Nc1ccccc1)NO [Vorinostat] (partner 1 µM)
How it was run: (§1)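 Relative viability is defined as nuclei in treated wells over nuclei in vehicle wells. Duplicate plates were run and medians reported. Lung cancer cell lines in 1536-well plates were dosed by pin tool one day after seeding, with one drug or with a fixed anchor-drug dose plus five library-drug doses (not always all listed) in √10 steps, and nuclei were counted after 5 days.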

Zosuquidar + Pictilisib = compound: O[C@@H](COc1cccc2ncccc12)CN1CCN([C@@H]2c3ccccc3[C@@H]3[C@H](c4ccccc42)C3(F)F)CC1 [Zosuquidar] + CS(=O)(=O)N1CCN(Cc2cc3nc(-c4cccc5[nH]ncc45)nc(N4CCOCC4)c3s2)CC1 [Pictilisib] (partner 1 µM)
How it was run: as §1

[1] = compound: COc1cc2nccc(Oc3ccc(NC(=O)C4(C(=O)Nc5ccc(F)cc5)CC4)cc3)c2cc1OC [Cabozantinib] + Nc1ncn([C@H]2C[C@H](O)[C@@H](CO)O2)c(=O)n1 [Decitabine] (partner 2 µM)
How it was run: as §1

[2] = compound: COc1cc2nccc(Oc3ccc(NC(=O)C4(C(=O)Nc5ccc(F)cc5)CC4)cc3)c2cc1OC [Cabozantinib] + CCNC(=O)c1noc(-c2cc(C(C)C)c(O)cc2O)c1-c1ccc(CN2CCOCC2)cc1 [Luminespib] (partner 0.01 µM)
How it was run: as §1

## UMC-11
Zosuquidar + Vorinostat; first compound 0.01 µM
  relative viability: 0.381
Zosuquidar + Vorinostat; first compound 0.03162 µM
  relative viability: 0.483
Zosuquidar + Vorinostat; first compound 0.1 µM
  relative viability: 0.505
Zosuquidar + Vorinostat; first compound 0.3162 µM
  relative viability: 0.432
Zosuquidar + Vorinostat; first compound 1 µM
  relative viability: 0.387
Zosuquidar + Pictilisib; first compound 0.01 µM
  relative viability: 0.663
Zosuquidar + Pictilisib; first compound 0.03162 µM
  relative viability: 0.92
Zosuquidar + Pictilisib; first compound 0.1 µM
  relative viability: 0.707
Zosuquidar + Pictilisib; first compound 0.3162 µM
  relative viability: 0.881
Zosuquidar + Pictilisib; first compound 1 µM
  relative viability: 0.777
[1]; first compound 0.02 µM
  relative viability: 0.654
[1]; first compound 0.06325 µM
  relative viability: 0.597
[1]; first compound 0.2 µM
  relative viability: 0.577
[1]; first compound 0.6325 µM
  relative viability: 0.615
[1]; first compound 2 µM
  relative viability: 0.554
[2]; first compound 0.02 µM
  relative viability: 0.941
[2]; first compound 0.06325 µM
  relative viability: 1.09
[2]; first compound 0.2 µM
  relative viability: 1.1
[2]; first compound 0.6325 µM
  relative viability: 1.09
[2]; first compound 2 µM
  relative viability: 1.09
